Assay results as given in publication PMC12933751 (RSC Advances, 2026).

Biological target: T1, ArnT (undecaprenyl phosphate-alpha-4-amino-4-deoxy-L-arabinose arabinosyl transferase) (Pseudomonas aeruginosa, UniProt Q02R27)
T1 sequence (Q02R27 1-549): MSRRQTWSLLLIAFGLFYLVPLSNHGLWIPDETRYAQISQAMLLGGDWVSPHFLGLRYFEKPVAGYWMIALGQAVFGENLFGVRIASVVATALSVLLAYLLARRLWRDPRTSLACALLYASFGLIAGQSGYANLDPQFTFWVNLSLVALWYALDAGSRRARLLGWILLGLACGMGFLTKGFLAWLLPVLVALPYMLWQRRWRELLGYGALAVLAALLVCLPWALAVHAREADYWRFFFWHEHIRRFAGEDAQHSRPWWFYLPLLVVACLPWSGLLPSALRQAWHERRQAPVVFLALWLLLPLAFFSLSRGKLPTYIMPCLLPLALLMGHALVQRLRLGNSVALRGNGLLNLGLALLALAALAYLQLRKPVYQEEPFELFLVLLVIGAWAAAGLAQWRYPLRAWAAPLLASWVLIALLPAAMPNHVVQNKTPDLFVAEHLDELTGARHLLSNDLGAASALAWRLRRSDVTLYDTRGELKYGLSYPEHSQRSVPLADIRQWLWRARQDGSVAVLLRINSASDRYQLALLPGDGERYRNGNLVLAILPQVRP
Test: intrinsic tryptophan fluorescence quenching titration, one-site binding fit

Kd: ~10 µM
SMILES: C[C@@]12CC[C@@H]3[C@@](CC[C@@H]4[C@@](C)(COC(=O)C(=O)O)CCC[C@]43C)(CC1)C2 [FDO-H]
